Assay results from patent publication US20260256931A1, “CD276 ANTIBODY AND METHODS OF USE THEREOF” (priority 2023, published 2026).
Where a SMILES comes first, the peptide text is derived from it. [ ]: non-standard residue; d: D form. Dolaproine = CO[C@@H]([C@@H]1CCCN1)[C@@H](C)C(=O)O; Dil = CC[C@H](C)[C@H](NC)[C@@H](CC(=O)O)OC; NMeV = CN[C@H](C(=O)O)C(C)C

How the values were obtained:
Assay type in all cases: cell-based
[1] = system: 4T1; test: In vitro cytotoxicity assay (MTT), 4T1; details: Mus musculus, 4T1, 120 h
Procedure: (§1) The human and mouse TNBC cells were seeded in 96-well plates with a density of 10,000 cells/well for MDA-MB-468, 1,000 cells/well for MDA-MB-231 and 500 cells/well for 4T1. The free MMAF, mAb-MMAF and mAb-MMAF/IMQ were added into each well to reach the final dosages of 0-300 or 400 nM. Higher concentrations, i.e. 0-20 μM, of free IMQ and mAb-IMQ, were tested. The treated cells were incubated at 37° C. and 5% CO2 for five days and the cell viability was analyzed using MTT Cell Proliferation Assay kit.

[2] = system: MDA-MB-468; test: In vitro cytotoxicity assay (MTT), MDA-MB-468; details: Homo sapiens, 120 h, MDA-MB-468, five days
Procedure: as §1

[3] = system: MDA-MB-231; test: In vitro cytotoxicity assay (MTT), MDA-MB-231; details: Homo sapiens, MDA-MB-231, 120 h
Procedure: as §1

Work on CC[C@H](C)[C@@H]([C@@H](CC(=O)N1CCC[C@H]1[C@H](OC)[C@@H](C)C(=O)N[C@@H](Cc1ccccc1)C(=O)O)OC)N(C)C(=O)[C@@H](NC(=O)[C@@H](NC)C(C)C)C(C)C [MMAF, Monomethyl auristatin F] (H-[NMeV]V[Dil][Dolaproine]F-OH) yielded an IC50 [1] of 104 nM, an IC50 [2] of 143 nM and an IC50 [3] of 151 nM.
